US20220233534A1, “CERDULATINIB-CONTAINING TOPICAL SKIN PHARMACEUTICAL COMPOSITIONS AND USES THEREOF” (DERMAVANT SCIENCES GMBH, priority 2019, published 2022)

Experiments:
[1] = test system: DNCB-induced atopic dermatitis NC/Nga mouse; test: DNCB-induced atopic dermatitis in the NC/Nga mouse model; assay type: in vivo
Procedure: Atopic dermatitis was induced by repeated application of DNCB (1-chloro-2,4-dinitrobenzene) to the dorsal skin of the ears/back. […] Lesions were evaluated on days 2, 8, 11, and 14.
Macroscopic lesion severity scores are depicted in FIG. 7. Macroscopic skin lesion severity was measured on the indicated Study Days by assessing (0-3 scale) the presence of erythema, edema, excoriation/erosion, and dryness scaling on the ears, neck, and dorsal skin of animals.
Serum IgE levels are depicted in FIG. 8. Serum samples obtained on Study Day 15 were utilized for IgE quantitation. Select cytokine data from the study are depicted in FIG. 9. Skin samples harvested on Day 15 were analyzed by LUMINEX for inflammatory cytokine levels for IL-4, IL-5, IL-13, and IL-31.

vitiligo mouse model = test: Study DMVT-502-9025 mouse model of vitiligo; assay type: in vivo
Procedure: The model mimics human vitiligo by inducing epidermal depigmentation with autoreactive CD8+ T-cell accumulation. A schematic of the model is depicted in FIG. 15.
Ten mice were used in the study: three REX3 reporter mice for cytokines CXCL9 and CXCL10 and seven SCF (stem cell factor) mice. The vitiligo study timeline is depicted in FIG. 16. The following assessments were performed during the study:
Blinded scoring of ears, tail, nose, and ventral feet (0-5 scale)
Epidermal, dermal, spleen, and lymph node PMEL (premelanosome protein) cell count
Epidermal/dermal APC (antigen-presenting cell) count
Keratinocyte Cytokine Expression

[2] = 60 mg/kg once daily oral, 5 weeks
[3] = 30 and 60 mg/kg once daily oral, 5 weeks

CCS(=O)(=O)N1CCN(c2ccc(Nc3ncc(C(N)=O)c(NC4CC4)n3)cc2)CC1 [DMVT-502, Cerdulatinib]
serum IgE levels ([1]; topical therapy, Study Day 15): trends towards reduction
pro-inflammatory cytokine levels in skin (IL-4, IL-5, IL-13, IL-31) ([1]; topical treatment, Day 15, LUMINEX): limited suppression
APCs in the dermal skin compartment and Langerhans cells in the epidermal skin compartment compared with vehicle (vitiligo mouse model; [2]): significantly reduced
CD3+, CD8− T-cell counts in the spleen (vitiligo mouse model; [2]): significantly reduced
PMEL T-cell counts in dermis and blood (vitiligo mouse model; [2]): significantly reduced
host T-cell counts in blood (vitiligo mouse model; [2]): significantly decreased
APC counts in lymph nodes and the spleen compared with vehicle (vitiligo mouse model; [3]): significantly reduced
PMEL T-cell counts in the epidermis and dermis compared with vehicle (vitiligo mouse model; [3]): significantly reduced
host-derived total T-cell counts in the spleen (vitiligo mouse model; [3]): significantly reduced
vitiligo scores compared with vehicle controls (vitiligo mouse model; [3]): significantly decreased
lymph node or spleen PMEL T cells (vitiligo mouse model; 30 or 60 mg/kg once daily oral, 5 weeks): no significant differences
CXCL9, CXCL10, and dual expression in keratinocytes compared with vehicle (vitiligo mouse model; SCF/REX3 mice): trends towards reduced
CXCL9 and CXCL10 expression in lymph node APCs (vitiligo mouse model; once daily oral, 5 weeks): Reduced
total keratinocyte counts between treatment groups (vitiligo mouse model; once daily oral, 5 weeks): No decrease
